Where two headings read alike, the source gives them in different places.
What was measured:
[1] = system: Brassica napus (winter rape, BRSNW); assay: Greenhouse postemergence trial BRSNW; format: in vivo
[2] = system: Polygonum convolvulus (wild buckwheat, POLCO); assay: Greenhouse postemergence trial POLCO; format: in vivo; conditions: for % visual injury (Obs): alone 280 g/ha
[3] = system: Cirsium arvense (Canadian thistle, CIRAR); assay: Greenhouse postemergence trial CIRAR; format: in vivo; conditions: CIRAR
Procedure: (§1) Seeds of the desired test plant species were planted in a 90:10% v/v (volume/volume) mixture of PRO-MIX® BX (Premier Tech Horticulture, Quakertown, PA, USA) and PROFILE® GREENS GRADE™ (Profile Products LLC, Buffalo Grove, IL, USA) planting mixture, which typically has a pH of 5.2 to 6.2 and an organic matter content of at least 50 percent, in plastic pots with a surface area of 103.2 square centimeters (cm^2). […] The plants were grown for 7-36 days (d) in a greenhouse with an approximate 14-hour (h) photo-period which was maintained at about 23° C. during the day and 22° C. during the night. Nutrients and water were added on a regular basis and supplemental lighting was provided with overhead metal halide 1000-Watt lamps as necessary. The plants were employed for testing when they reached the second or third true leaf stage.
(§2) Emulsifiable concentrates of each of each pyridine carboxylate herbicide (Compound A or Compound B) were prepared at 100 grams acid equivalent per liter (g ae/L). The emulsifiable concentrates also included a safener, cloquintocet-mexyl, at 120 grams active ingredient per liter (g ai/L), unless otherwise noted below. An aliquot of each emulsifiable concentrate was placed in a 25 mL glass vial and diluted with an aqueous mixture of 1.25% (v/v) ACTIROB® B esterified rapeseed oil (Bayer Crop Science, Research Triangle Park, NC, USA) or MSO® Concentrate with LECI-TECH® methylated soybean oil (Loveland Products, Loveland, CO, USA) to obtain concentrated stock solutions at the highest application rate for each herbicide, based upon a 12 milliliter (mL) application volume at a rate of 187 liters per hectare (L/ha). The concentrated stock solutions were further diluted with an aqueous mixture of 1.25% v/v ACTIROB® B or MSO® Concentrate with LECI-TECH® to obtain stock solutions at reduced application rates for each herbicide. Spray solutions of the herbicide combinations (Compound A or Compound B plus synthetic auxin herbicide or auxin transport inhibitor) were prepared by adding weighed amounts or aliquots of the synthetic auxin herbicide or auxin transport inhibitor to the stock solutions of Compound A or Compound B to form 12-mL spray solutions in two-way combinations.
(§3) The spray solutions were applied to the plant material with an overhead Mandel track sprayer equipped with 8002E nozzles calibrated to deliver 187 L/ha over an application area of 0.503 square meters (m^2) at a spray height of 18 inches (43 centimeters (cm)) above the average plant canopy. Control plants were sprayed in the same manner with the solvent blank. All pyridine carboxylate herbicide (component a) application rates are given as “g ae/ha” and all synthetic auxin herbicide or auxin transport inhibitor (component b) application rates are given as “g ai/ha.”
(§4) The treated plants and control plants were placed in a greenhouse as described above and watered by sub-irrigation to prevent wash-off of the test compounds. After 20-22 d, the condition of the test plants as compared with that of the control plants was determined visually and scored on a scale of 0 to 100 percent where 0 corresponds to no injury and 100 corresponds to complete kill.

[4] = system: Sinapis arvensis (wild mustard, SINAR); assay: Greenhouse postemergence trial SINAR; format: in vivo; conditions: SINAR
Procedure: (§5) The plants were grown for 7-36 days (d) in a greenhouse with an approximate 14-hour (h) photo-period which was maintained at about 23° C. during the day and 22° C. during the night. Nutrients and water were added on a regular basis and supplemental lighting was provided with overhead metal halide 1000-Watt lamps as necessary. The plants were employed for testing when they reached the second or third true leaf stage.
(§6) The emulsifiable concentrates also included a safener, cloquintocet-mexyl, at 120 grams active ingredient per liter (g ai/L), unless otherwise noted below.
(§7) Control plants were sprayed in the same manner with the solvent blank. All pyridine carboxylate herbicide (component a) application rates are given as “g ae/ha” and all synthetic auxin herbicide or auxin transport inhibitor (component b) application rates are given as “g ai/ha.”
as §4

[5] = system: Salsola kali (Russian thistle, SASKR); assay: Greenhouse postemergence trial SASKR; format: in vivo; conditions: SASKR;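 note: greenhouse plants sprayed at second or third true leaf stage, injury rated by eye after 20-22 d against solvent-blank controls, 0 meaning no injury, 100 complete kill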
[6] = system: Kochia scoparia (kochia, KCHSC); assay: Greenhouse postemergence trial KCHSC; format: in vivo; conditions: KCHSC; for % visual injury (Obs): alone 280 g/ha
[7] = system: Chenopodium album L. (common lambsquarters, CHEAL); assay: Greenhouse postemergence trial CHEAL; format: in vivo; conditions: CHEAL; alone 280 g/ha;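 note: greenhouse plants sprayed at second to third true leaf stage, injury rated by eye after 20-22 d versus solvent-blank sprayed controls, 0 = no injury, 100 = complete kill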
[8] = system: Amaranthus retroflexus (pigweed, AMARE); assay: Greenhouse postemergence trial AMARE; format: in vivo; conditions: AMARE; alone 280 g/ha;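 note: Greenhouse-grown plants sprayed at second to third true leaf stage, injury rated by eye after 20-22 d versus solvent-blank sprayed controls, 0 = no injury, 100 = complete kill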
[9] = system: Matricaria chamomilla (wild chamomile, MATCH); assay: Greenhouse postemergence trial MATCH; format: in vivo; conditions: for % visual injury (Obs): alone 280 g/ha;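 for all read-outs here: greenhouse plants sprayed at second to third true leaf stage, injury rated by eye 20-22 d later versus solvent-blank controls on 0–100 scale, 0 no injury, 100 complete kill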
[10] = system: Triticum aestivum (spring wheat, TRZAS); format: in vivo; conditions: TRZAS; for % visual injury (Obs): alone 280 g/ha
[11] = system: Hordeum vulgare (spring barley, HORVS); format: in vivo; conditions: HORVS; for % visual injury (Obs): alone 280 g/ha
[12] = system: Cyanus segetum (cornflower, CENCY); assay: Greenhouse postemergence trial CENCY; format: in vivo; conditions: Centaurea cyanus, post-emergence, read-out: % visual injury Obs
Procedure: as §1, §2, §3, §4

[13] = system: Viola arvensis (field violet, VIOAR); assay: Greenhouse postemergence trial VIOAR; format: in vivo; conditions: Viola arvensis, post-emergence, read-out: % visual injury Obs
[14] = system: Veronica hederifolia (ivyleaf speedwell, VERHE); assay: Greenhouse postemergence trial VERHE; format: in vivo
[15] = system: Papaver rhoeas (corn poppy, PAPRH); assay: Greenhouse postemergence trial PAPRH; format: in vivo; conditions: Papaver rhoeas, post-emergence, read-out: % visual injury Obs
[16] = system: Veronica persica (bird's-eye speedwell, VERPE); assay: Greenhouse postemergence trial VERPE; format: in vivo
[17] = system: Papaver rhoeas (corn poppy), herbicide-resistant (PAPRH-R); assay: Greenhouse postemergence trial PAPRH-R; format: in vivo
Procedure: as §1, §2, §3, §4

[18] = system: Capsella bursa-pastoris (shepherd's purse, CAPBP); assay: Greenhouse postemergence trial CAPBP; format: in vivo; conditions: Capsella bursa-pastoris, post-emergence, read-out: % visual injury Obs
Procedure: as §1, §2, §3, §4

[19] = system: Stellaria media (chickweed, STEME); assay: Greenhouse postemergence trial STEME; format: in vivo; conditions: Stellaria media, post-emergence, read-out: % visual injury Obs
[20] = system: Anthemis arvensis (field chamomile, ANTAR); assay: Greenhouse postemergence trial ANTAR; format: in vivo; conditions: Anthemis arvensis, post-emergence, read-out: % visual injury Obs
[21] = system: Matricaria discoidea (pineapple weed, MATMT); assay: Greenhouse postemergence trial MATMT; format: in vivo
Procedure: as §1, §2, §3, §4

[22] = system: Matricaria inodora (false chamomile, MATIN); assay: Greenhouse postemergence trial MATIN; format: in vivo; conditions: Tripleurospermum inodorum, post-emergence, read-out: % visual injury Obs
[23] = system: Triticum aestivum (winter wheat, TRZAW); assay: Greenhouse postemergence crop phytotoxicity TRZAW; format: in vivo; conditions: TRZAW
Procedure: as §1, §2, §3, §4

[24] = system: Hordeum vulgare (winter barley, HORVW); assay: Greenhouse postemergence crop phytotoxicity HORVW; format: in vivo; conditions: HORVW
[25] = system: Brassica napus (spring rape, BRSNN); assay: Greenhouse postemergence trial BRSNN; format: in vivo; conditions: for % visual injury (Obs): BRSNN, alone 280 g/ha
[26] = system: Lamium purpureum (purple deadnettle, LAMPU); assay: Greenhouse postemergence trial LAMPU; conditions: Lamium purpureum, post-emergence, read-out: % visual injury Obs
Procedure: as §5, §6, §7, §4

[27] = system: Viola tricolor (wild pansy, VIOTR); assay: Greenhouse postemergence trial VIOTR; conditions: Viola tricolor, post-emergence, read-out: % visual injury Obs;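 note: greenhouse plants sprayed at second to third true leaf stage, injury rated visually after 20-22 d against solvent-blank sprayed controls, 0 meaning no injury and 100 complete kill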
[28] = system: Rumex obtusifolius (broad-leaf dock, RUMOB); assay: Greenhouse postemergence trial RUMOB; format: in vivo; conditions: c2-3 Compound A 7.5/10; c4 Florpyrauxifen-benzyl 10; c5-6 A 7.5/10 + Florpyrauxifen-benzyl 10 g/ha
[29] = Brassica napus, post-emergence, read-out: % visual injury Obs
[30] = Fallopia convolvulus, post-emergence, read-out: % visual injury Obs
[31] = Veronica hederifolia, post-emergence, read-out: % visual injury Obs
[32] = Veronica persica, post-emergence, read-out: % visual injury Obs
[33] = Papaver rhoeas, post-emergence, read-out: % visual injury Obs
[34] = Matricaria discoidea, post-emergence, read-out: % visual injury Obs

O=C(O)CCCOc1ccc(Cl)cc1Cl [2,4-DB]
plant injury at 560 g/ha [1, 29]: 85% | pest or weed control at 560 g/ha [2, 30]: 30% | % visual injury (Obs) ([2]; POLCO): 13% | % visual injury (Obs) ([3]; alone 280 g/ha): 15% | pest or weed control ([3]; Cirsium arvense, post-emergence, alone, read-out: % visual injury Obs): 30% | pest or weed control ([4]; Mutarda arvensis, post-emergence, alone, read-out: % visual injury Obs): 50% | % visual injury (Obs) ([4]; alone 280 g/ha): 30% | pest or weed control ([5]; Salsola kali, post-emergence, alone, read-out: % visual injury Obs): 50% | pest or weed control ([6]; Bassia scoparia, post-emergence, alone, read-out: % visual injury Obs): 30% | % visual injury (Obs) [6]: 3% | % visual injury (Obs) [7]: 43% | % visual injury (Obs) [8]: 60% | % visual injury (Obs) ([9]; MATCH): 5% | pest or weed control ([9]; Matricaria chamomilla, post-emergence, MATCH, alone, read-out: % visual injury Obs): 10% | % visual injury (Obs) [10]: 0% | % visual injury Obs ([10]; alone, 560 g/ha): 0% | % visual injury (Obs) [11]: 0% | % visual injury Obs ([11]; alone, 560 g/ha): 0% | pest or weed control at 560 g/ha [12]: 30% | pest or weed control at 560 g/ha [13]: 30% | pest or weed control at 560 g/ha [14, 31]: 60% | pest or weed control at 560 g/ha [15]: 100% | pest or weed control at 560 g/ha [16, 32]: 60% | pest or weed control at 560 g/ha [17, 33]: 30% | pest or weed control at 560 g/ha [18]: 30% | pest or weed control at 560 g/ha [19]: 10% | pest or weed control at 560 g/ha [20]: 10% | pest or weed control at 560 g/ha [21, 34]: 5% | pest or weed control at 560 g/ha [22]: 10% | % visual injury Obs ([23]; alone, 560 g/ha): 0% | % visual injury Obs ([24]; alone, 560 g/ha): 0% | % visual injury (Obs) [25]: 70% | pest or weed control at 560 g/ha [26]: 10% | pest or weed control at 560 g/ha [27]: 60%

COc1c(Cl)ccc(-c2nc(C(=O)OCc3ccccc3)c(Cl)c(N)c2F)c1F [Florpyrauxifen-benzyl, florpyrauxifen-benzyl, reference compound]
plant injury at 20 g/ha [1, 29]: 40% | pest or weed control at 20 g/ha [2, 30]: 85% | pest or weed control at 20 g/ha ([3]; Cirsium arvense, post-emergence, Florpyrauxifen-benzyl 20 g/ha, read-out: % visual injury Obs): 70% | pest or weed control at 20 g/ha ([4]; Mutarda arvensis, post-emergence, Florpyrauxifen-benzyl 20 g/ha, read-out: % visual injury Obs): 90% | pest or weed control at 20 g/ha ([5]; Salsola kali, post-emergence, Florpyrauxifen-benzyl 20 g/ha, read-out: % visual injury Obs): 70% | pest or weed control at 20 g/ha ([6]; Bassia scoparia, post-emergence, Florpyrauxifen-benzyl 20 g/ha, read-out: % visual injury Obs): 65% | pest or weed control at 20 g/ha ([9]; Matricaria chamomilla, post-emergence, MATCH, Florpyrauxifen-benzyl 20 g/ha, read-out: % visual injury Obs): 35% | % visual injury Obs ([10]; Florpyrauxifen-benzyl 20 g/ha): 0% | % visual injury Obs ([11]; Florpyrauxifen-benzyl 20 g/ha): 0% | pest or weed control at 20 g/ha [12]: 100% | pest or weed control at 20 g/ha [13]: 10% | pest or weed control at 20 g/ha [14, 31]: 20% | pest or weed control at 20 g/ha [15]: 70% | pest or weed control at 20 g/ha [16, 32]: 10% | pest or weed control at 20 g/ha [17, 33]: 60% | pest or weed control at 20 g/ha [18]: 80% | pest or weed control at 20 g/ha [19]: 100% | pest or weed control at 20 g/ha [20]: 100% | pest or weed control at 20 g/ha [21, 34]: 50% | pest or weed control at 20 g/ha [22]: 50% | % visual injury Obs ([23]; Florpyrauxifen-benzyl 20 g/ha): 0% | % visual injury Obs ([24]; Florpyrauxifen-benzyl 20 g/ha): 0% | % visual injury, Obs ([25]; c2-3 Compound A 7.5/10, c4 Florpyrauxifen-benzyl 10, c5-6 A 7.5/10 + Florpyrauxifen-benzyl 10 g/ha): 25% | % visual injury, Obs [28]: 33% | pest or weed control at 20 g/ha [26]: 97% | pest or weed control at 20 g/ha [27]: 70%

O=C(O)COc1nc(Cl)c(Cl)cc1Cl [Triclopyr]
plant injury at 560 g/ha ([1]; Brassica napus, post-emergence, BRSNW, alone, 560 g/ha, read-out: % visual injury Obs): 60% | BRSNW % visual injury Obs ([1]; Triclopyr 45 g/ha (Table 39)): 10% | BRSNW % visual injury Obs ([1]; Triclopyr 60 g/ha (Table 39)): 10% | pest or weed control at 560 g/ha ([2]; Fallopia convolvulus, post-emergence, POLCO, alone, 560 g/ha, read-out: % visual injury Obs): 30% | % visual injury (Obs) ([2]; POLCO): 13% | pest or weed control at 560 g/ha ([3]; Cirsium arvense, post-emergence, alone, 560 g/ha, read-out: % visual injury Obs): 75% | pest or weed control at 560 g/ha ([4]; Mutarda arvensis, post-emergence, alone, 560 g/ha, read-out: % visual injury Obs): 100% | % visual injury (Obs) ([5]; alone 280 g/ha): 45% | pest or weed control at 560 g/ha ([5]; Salsola kali, post-emergence, alone, 560 g/ha, read-out: % visual injury Obs): 50% | pest or weed control at 560 g/ha ([6]; Bassia scoparia, post-emergence, alone, 560 g/ha, read-out: % visual injury Obs): 75% | % visual injury (Obs) [6]: 23% | % visual injury (Obs) [7]: 53% | % visual injury (Obs) [8]: 45% | % visual injury (Obs) ([9]; MATCH): 5% | pest or weed control at 560 g/ha ([9]; Matricaria chamomilla, post-emergence, MATCH, alone, 560 g/ha, read-out: % visual injury Obs): 40% | MATCH % visual injury Obs ([9]; Triclopyr 45 g/ha (Table 39)): 10% | MATCH % visual injury Obs ([9]; Triclopyr 60 g/ha (Table 39)): 10% | % visual injury (Obs) [10]: 0% | % visual injury Obs ([10]; alone, 560 g/ha): 0% | % visual injury (Obs) [11]: 0% | % visual injury Obs ([11]; alone, 560 g/ha): 0% | pest or weed control at 560 g/ha ([12]; CENCY, alone, 560 g/ha): 100% | pest or weed control at 560 g/ha ([13]; VIOAR, alone, 560 g/ha): 25% | VERHE % visual injury Obs ([14]; Triclopyr 45 g/ha (Table 39)): 10% | VERHE % visual injury Obs ([14]; Triclopyr 60 g/ha (Table 39)): 15% | pest or weed control at 560 g/ha ([14]; Veronica hederifolia, post-emergence, VERHE, alone, 560 g/ha, read-out: % visual injury Obs): 65% | pest or weed control at 560 g/ha ([15]; PAPRH, alone, 560 g/ha): 20% | VERVE % visual injury Obs ([16]; Triclopyr 45 g/ha (Table 39)): 0% | VERVE % visual injury Obs ([16]; Triclopyr 60 g/ha (Table 39)): 0% | pest or weed control at 560 g/ha ([16]; Veronica persica, post-emergence, VERPE, alone, 560 g/ha, read-out: % visual injury Obs): 60% | pest or weed control at 560 g/ha ([17]; Papaver rhoeas, post-emergence, PAPRH-R, alone, 560 g/ha, read-out: % visual injury Obs): 50% | PAPRH-R % visual injury Obs ([17]; Triclopyr 45 g/ha (Table 39)): 10% | PAPRH-R % visual injury Obs ([17]; Triclopyr 60 g/ha (Table 39)): 10% | pest or weed control at 560 g/ha ([18]; CAPBP, alone, 560 g/ha): 75% | pest or weed control at 560 g/ha ([19]; STEME, alone, 560 g/ha): 30% | pest or weed control at 560 g/ha ([20]; ANTAR, alone, 560 g/ha): 40% | pest or weed control at 560 g/ha ([21]; Matricaria discoidea, post-emergence, MATMT, alone, 560 g/ha, read-out: % visual injury Obs): 10% | MATMT % visual injury Obs ([21]; Triclopyr 45 g/ha (Table 39)): 20% | MATMT % visual injury Obs ([21]; Triclopyr 60 g/ha (Table 39)): 25% | pest or weed control at 560 g/ha ([22]; MATIN, alone, 560 g/ha): 0% | % visual injury Obs ([23]; alone, 560 g/ha): 0% | % visual injury Obs ([24]; alone, 560 g/ha): 0% | % visual injury (Obs) [25]: 50% | pest or weed control at 560 g/ha [26]: 65% | pest or weed control at 560 g/ha [27]: 70%
